# Experimental data: US5721106A, “In Vitro method for screening β-amyloid deposition” (Regents of the University of Minnesota, priority 1994, dated 1998)
# Entries after “also recorded” stand apart in the source; their conditions may differ. Ends that are not written are not given here. Peptide text beside a SMILES is read from it. * marks the point of attachment. PEG = not defined here; 125I = [125I]*
# Columns and labels:
# [1] = test system: AD plaques; test: Deposition of ^125 I-labelled β-amyloid peptides onto plaques in AD brain tissue (homogenate binding, autoradiography); set-up: species or system human; settings: for plaque deposition (plaque competence) at pH 3.9: quantitative densitometry of autoradiograms; for plaque deposition at pH 5.8: 100% = deposition of ^125 I-βA(1-40)-OH at pH 7.4
# [2] = test system: AD plaques; test: as above; set-up: species or system human; settings: for deposition activity of fragment (active / not active): labelled fragment combined with AD amyloid plaque or silk, relative to βA(1-40)-OH; for plaque competence as a function of pH: growth of tissue plaques by deposition of labelled peptides from solution; for activity relative to the full length peptide βA(1-40)-OH: plaque deposition on AD brain sections, two hours, densitometry of autoradiograms
# Method: Fragments labelled in accordance with the method described herein can be combined with amyloid plaque derived from Alzheimer's disease tissue or other amyloid substance such as silk, and tested for activity, for example, their ability to deposit on these materials.
# (§1) Brain tissue was obtained form normal and Alzheimer's disease patients at 0.5 to 14 hours postmortem, frozen on dry ice after collection, and stored at -20° C. until use. For filter binding studies, tissue homogenates were prepared after the method of H. P. Too and M. R. Hanley, Biochem. J. 252:545 (1988), the disclosure of which is incorporated by reference herein. Tissue was homogenized (Polytron, setting 7-8, 5-10 sec) in 5-10 volumes of 50 mM Tricine (pH 7.5) containing 10% sucrose and protease inhibitors (0.01% bacitracin, 0.002% soybean trypsin inhibitor, 0.0002% chicken egg trypsin inhibitor, 1 mM benzamidine hydrochloride) and pelleted at 10,000 g for 20 minutes. The homogenate was then resuspended and washed several times in Tricine buffer containing 120 mM NaCl, 10 mM EDTA, 300 mM KCl and centrifuged at 40,000 g for 20 minutes and stored at -20° C. for less than two months. Membranes (equivalent to about 30 mg tissue) were resuspended in 0.5 ml 50 mM TrisHCl (pH 7.5) containing 1 mg/ml bovine serum albumin (BSA), 10 mM MnCl2, 0.004% bacitracin, 0.002% chymostatin, 0.004% leupeptin, 0.1% dimethylsulfoxide for 30 minutes prior to addition of the radioligand (10^-11 to 10^-9 M) and various concentrations of unlabelled peptides in the same buffer.
# (§2) After incubating for two hours at room temperature, the homogenates (final volume 0.575 ml) were filtered through glass fiber filters (Whatman GF/D), presoaked for at least two hours in 1 mg/ml BSA and rinsed with 25 mM Tricine (pH 7.5). After washing twice with 25 mM TrisHCl (pH 7.5) at room temperature, the filters were counted in a gamma counter.
# For tissue autoradiography, unfixed tissue was serially sectioned at 5-15 μm and thaw-mounted onto gelatin-coated slices. Slide-mounted sections were stored at -20° C. in closed boxes over desiccant for less than three months before use. Sections were preincubated for 30 minutes and incubated with the radioligand for two hours under the same conditions according to the aforedescribed homogenate binding study. Alternatively, 50 mM TrisHCl rather than Tricine may be used as the buffer. For estimating nonspecific binding, paired serial sections were incubated with the radioligand in the presence of a 10^4 to 10^5 fold excess of the unlabelled peptide. Following incubation with the radioligand, the slides were washed with 50 mM TrisHCl pH 7.5 (four times, two minutes each at 4° C.), then dried at 4° C. and stored in closed boxes over desiccant at room temperature overnight. The fully dried slides were then placed in apposition to tritium-sensitive film alongside iodinated standards. After one week's exposure at -20° C., the film was developed, fixed and washed. […] This approach generated film autoradiograms for quantitative densitometry,a high resolution emulsion autoradiograms for detailed histology, and a counterstained section for identification of cell types from each tissue section.
# Briefly peptides were purchased or synthesized by fluorenemethoxycarbonyl chemistry on polystyrene resins, using acid-labile blocking groups for sidechain protection, cleaved with trifluoroacetic acid, and purified by RP-HPLC. […] Autoradiograms were quantitated by densitometry. […] To study the peptide fragments in water we developed a novel approach, measuring NMR data at 750 MHz using a prototype 10 mm ^1 H pulsed field gradient probe. Modified two-dimensional homonuclear TOCSY and NOESY experiments were measured at several pH values and structural information was derived using standard methods.
# [3] = biological target: T1, labelled β-amyloid peptide (Homo sapiens, UniProt P05067); test: In vitro aggregation of labelled β-amyloid peptide in the absence of plaques (centrifugation, supernatant counting); type: biochemical; settings: about 10^-9 M labelled peptide, 50 mM Tricine pH 7.5; SDS at 0.01%
# T1 construct: made in house; host or cells: chemical synthesis (solid-phase Fmoc) or purchased unlabelled peptide (Bachem); radioiodinated in house
# Method: A solution of about 10^-9 M labelled β-amyloid peptide in 50 mM Tricine buffer at pH 7.5 was prepared from stock solution of the peptide as described hereinabove in Example 1. The solution was aliquotted into several reaction vessels (polypropylene microcentrifuge tubes) and allowed to stand at room temperature with occasional vortex mixing. At various times, the tubes were centrifuged at 12000 g for 4 minutes, and the fraction of initial (t=0) cpm of labelled peptide remaining in the supernatant fraction determined by removing a small aliquot for counting. The rate of disappearance was dependent on a variety of other conditions which were evaluated using this assay. Thus, the rate of the disappearance depends on peptide concentration (faster at higher peptide concentrations), and on ionic strength (faster at higher salt concentrations). The rate of disappearance was further dependent on the presence of certain detergents such as sodium dodecylsulfate (SDS) (faster in 0.01% SDS; see, FIG. 4), and on the presence of certain organic solvents (slower in the presence of acetonitrile).
# [4] = biological target: amyloid plaques in Alzheimer's disease brain tissue (homogenates and thin sections); test: deposition of 125I-labelled peptide onto AD brain sections, autoradiography with densitometry
# [5] = test system: tissue plaques; test: Effect of metal ions, chelating agent and detergents on deposition of labelled peptide on tissue plaques; type: binding, human
# Source text: A deposition-enhancing agent may be added prior to the addition of the deposition-affecting agent to be tested.
# [6] = test system: ceilan katia yarn (silk); test: Effect of detergents and zinc on deposition of tracer onto silk; type: binding, Bombyx silkworm; settings: for effect of detergent on rate of deposition (binding) onto silk: detergent concentration 0 to 1%
# [7] = test system: Alzheimer's disease plaques; test: Competitive inhibition of ^125 I-β-amyloid peptide^1-40 deposition in homogenates of Alzheimer's disease temporal cortex; type: binding, human; settings: increasing concentrations of unlabelled peptide, AD temporal cortex homogenates (and sections)
# Method: as §1, §2
# T1 sequence (P05067 672-711): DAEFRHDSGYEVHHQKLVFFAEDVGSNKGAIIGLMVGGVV
# Chain of βA(1-28)-OH (peptide) (peptide): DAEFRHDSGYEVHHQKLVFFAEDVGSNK
molecule,measurement,setting,value
"^125 I-βA(10-35)-NH2: ^125 I-labelled βA(10-35)-NH2, labelled at Tyr10 (Y(125I)EVHHQKLVFFAEDVGSNKGAIIGLM-NH2)",plaque deposition (plaque competence) at pH 3.9,[1],plaque-incompetent
same,plaque deposition at pH 5.8,[1],30%
βA(1-40)-PEG: β-amyloid peptide 1-40 conjugated to polyethylene glycol at the C-terminus,deposition activity of fragment (active / not active),[2],active
(des-A2)-βA(1-40)-OH: 39-mer lacking the alanine at position 2,deposition activity of fragment (active / not active),[2],active
CC(C)C[C@H](NC(=O)[C@H](CCCCN)NC(=O)[C@H](CCC(N)=O)NC(=O)[C@H](Cc1c[nH]cn1)NC(=O)[C@H](Cc1c[nH]cn1)NC(=O)[C@@H](NC(=O)[C@@H](N)CCC(=O)O)C(C)C)C(=O)N[C@H](C(=O)N[C@@H](Cc1ccccc1)C(=O)N[C@@H](Cc1ccccc1)C(=O)N[C@@H](C)C(=O)N[C@@H](CCC(=O)O)C(=O)N[C@@H](CC(=O)O)C(=O)N[C@H](C(=O)NCC(=O)O)C(C)C)C(C)C [βA(11-25)-OH],deposition activity of fragment (active / not active),[2],not active (exhibit less than about 1% of the deposition level of βA(1-40)OH)
CC#N [acetonitrile],rate of disappearance of tracer from the supernatant (aggregation),[3],slower
βA(1-28)-OH (peptide),activity relative to βA(1-40)-OH,[4],< 1%
"O=C(O)CN(CCN(CC(=O)O)CC(=O)O)CC(=O)O [EDTA, ethylene diamine tetraacetic acid]",inhibition of the rate of deposition of labelled peptide,[5]; 0.1 mM,five-fold
βA(1-28)-OH: 28 residue fragment corresponding to the amino terminal region,plaque competence as a function of pH,[2],inactive at all pH values tested
same,deposition activity of fragment (active / not active),[2],not active (exhibit less than about 1% of the deposition level of βA(1-40)OH)
same,activity relative to the full length peptide βA(1-40)-OH,[2],less than 1%
^125 I-βA(1-28)-OH: ^125 I-labelled βA(1-28)-OH,plaque deposition (plaque competence) at pH 3.9,[1],plaque-incompetent
same,plaque deposition at pH 5.8,[1],< 1%
"CCCCCCCCCCCCOS(=O)(=O)[O-].[Na+] [SDS, sodium dodecyl sulfate]",effect of detergent on rate of deposition (binding) onto silk,[6],increase binding rate
same,effect of detergent on deposition of labelled peptide on tissue plaques,[5],enhance deposition
same,rate of disappearance of tracer from the supernatant (aggregation),[3],faster
"^125 I-βA(1-40)-OH: ^125 I-radioiodinated (monoiodinated, reduced) human β-amyloid peptide 1-40 tracer",plaque deposition (plaque competence) at pH 3.9,[1],plaque-incompetent
same,plaque deposition at pH 5.8,[1],83%
same,pH optimum of deposition onto plaques in AD tissue,[2]; 100 pM,around neutrality
same,deposition in tissue without preformed plaques,[2]; tissue without preformed plaques,no deposition was detected
βA(10-35)-NH2: 26 residue carboxyamidated fragment from the central region of the βA sequence (YEVHHQKLVFFAEDVGSNKGAIIGLM-NH2; also: 125I at Tyr10 as tracer (name unlabelled)),plaque competence as a function of pH,[2],plaque-competent within the pH range of 5 to 9
same,deposition activity of fragment (active / not active),[2],active
same,activity as fraction of the activity of βA(1-40)-OH,[2]; physiological (subnanomolar) peptide concentration,about 1/3
same,activity relative to the full length peptide βA(1-40)-OH,[2],about 35%
"βA(1-35)-NH2: carboxyamidated β-amyloid fragment, residues 1-35",deposition activity of fragment (active / not active),[2],active
Triton X-100,effect of detergent on rate of deposition (binding) onto silk,[6],no effect
same,effect of detergent on deposition of labelled peptide on tissue plaques,[5],no effect
CC[C@H](C)[C@H](NC(=O)[C@H](C)NC(=O)CNC(=O)[C@H](CCCCN)NC(=O)[C@H](CC(=O)O)NC(=O)[C@H](CO)NC(=O)CN)C(=O)N[C@H](C(=O)NCC(=O)N[C@@H](CC(C)C)C(=O)N[C@@H](CCSC)C(=O)O)[C@@H](C)CC [D27-βA(25-35)-OH] (H-GSDKGAIIGLM-OH),deposition activity of fragment (active / not active),[2],not active (exhibit less than about 1% of the deposition level of βA(1-40)OH)
PEG-βA(10-35)-NH2: polyethylene glycol conjugate of βA(10-35)-NH2 ({PEG}-YEVHHQKLVFFAEDVGSNKGAIIGLM-NH2; reading uncertain),deposition activity of fragment (active / not active),[2],not active (exhibit less than about 1% of the deposition level of βA(1-40)OH)
CCCCCCCCCCCC[N+](C)(C)CCCS(=O)(=O)[O-] [Zwittergent 312],effect of detergent on deposition of labelled peptide on tissue plaques,[5],no effect
"rat βA(1-40)-OH: rat and mouse analogue (G^5, F^10, R^14) of β-amyloid peptide, 1-40 (DAEFGHDSGFEVHRQKLVFFAEDVGSNKGAIIGLMVGGVV-OH)",deposition activity of fragment (active / not active),[2],not active (exhibit less than about 1% of the deposition level of βA(1-40)OH)
same,inhibition of ^125 I-β-amyloid peptide^1-40 deposition onto plaques,[7]; listed as rat β-amyloid peptide^1-40,essentially inactive
same,inhibition of ^125 I-β-amyloid peptide^1-40 deposition onto plaques,[7]; listed as unlabelled rat β-amyloid peptide^1-40,did not inhibit
CC[C@H](C)[C@H](NC(=O)[C@H](C)NC(=O)CNC(=O)[C@H](CCCCN)NC(=O)[C@H](CC(N)=O)NC(=O)[C@H](CO)NC(=O)CN)C(=O)N[C@H](C(=O)NCC(=O)N[C@@H](CC(C)C)C(=O)N[C@@H](CCSC)C(N)=O)[C@@H](C)CC [βA(25-35)-NH2] (H-GSNKGAIIGLM-NH2),deposition activity of fragment (active / not active),[2],not active (exhibit less than about 1% of the deposition level of βA(1-40)OH)
same,inhibition of ^125 I-β-amyloid peptide^1-40 deposition onto plaques,[7]; listed as β-amyloid peptide^25-35 -NH2,competed with the 40-mer radioligand when the former was present at much higher concentrations; also recorded: substantially less potent
[Cl-].[Cl-].[Zn+2] [zinc chloride],factor of acceleration of deposition of ^125 I-βA(1-40)-OH onto silk thread,[6]; tracer ^125 I-βA(1-40)-OH,about 5
same,effect on deposition of ^125 I-βA(26-42)-NH2 onto silk,[6]; tracer ^125 I-βA(26-42)-NH2,unaffected
same,enhancement of the rate of deposition of labelled peptide,[5]; 0.1 mM,twenty-fold
same,effect on deposition of ^125 I-βA(26-42)-NH2 onto AD plaques,[5]; tracer ^125 I-βA(26-42)-NH2,unaffected
"βA(10-35)-OH: β-amyloid fragment residues 10-35, free carboxyl terminus (YEVHHQKLVFFAEDVGSNKGAIIGLM-OH)",deposition activity of fragment (active / not active),[2],active
YEVHHQKLVFFAEDVGSNKGAIIGLM-NH2 (not fully specified (residue 1)) [βA(10-35)-NH2],activity relative to the full length peptide,[4],35%
